A short description of this series: activity coefficient (dimensionless); of the first substance listed, at infinite dilution; xn = mol fraction of the nth substance listed. Particulars: 101.33 kPa, Liquid, Chromatography, x1 = 0.

The structures appear in SMILES notation. ± gives the expanded uncertainty stated by the source.

Take `CCCC(C)=O` [pentan-2-one] + CCCCCCCCCCCC[N+](C)(C)CCOc1ccccc1.N#C[N-]C#N: the activity coefficient runs as follows: (328.15 K) 0.899 ± 0.057; (338.15 K) 0.936 ± 0.059; (348.15 K) 0.97 ± 0.061; (358.15 K) 1 ± 0.06; (368.15 K) 1.04 ± 0.07; (378.15 K) 1.07 ± 0.07.
As for `C#CCCC` [1-pentyne] + CCCCCCCCCCCC[N+](C)(C)CCOc1ccccc1.N#C[N-]C#N, the activity coefficient is 1.47 ± 0.1 (328.15 K); 1.53 ± 0.1 (338.15 K); 1.6 ± 0.11 (348.15 K); 1.66 ± 0.11 (358.15 K); 1.73 ± 0.12 (368.15 K); 1.79 ± 0.12 (378.15 K).
`C1CCCCCCC1` [cyclooctane] + CCCCCCCCCCCC[N+](C)(C)CCOc1ccccc1.N#C[N-]C#N: the activity coefficient by setting is: (328.15 K) 3.56 ± 0.24; (338.15 K) 3.63 ± 0.25; (348.15 K) 3.69 ± 0.25; (358.15 K) 3.72 ± 0.25; (368.15 K) 3.76 ± 0.26; (378.15 K) 3.79 ± 0.26.
For `CCCCCCCCCC` [decane] + CCCCCCCCCCCC[N+](C)(C)CCOc1ccccc1.O=S(=O)([N-]S(=O)(=O)C(F)(F)F)C(F)(F)F, the activity coefficient turned out to be 5.72 ± 0.39 (318.15 K); 5.8 ± 0.4 (328.15 K); 5.87 ± 0.4 (338.15 K); 5.92 ± 0.4 (348.15 K); 5.98 ± 0.41 (358.15 K); 6.03 ± 0.41 (368.15 K).
`CCO` [ethanol] + CCCCCCCCCCCC[N+](C)(C)CCOc1ccccc1.N#C[N-]C#N: the activity coefficient (328.15 K) was determined as 0.411 ± 0.034; the activity coefficient (338.15 K) worked out at 0.421 ± 0.035; the activity coefficient (348.15 K) was determined as 0.429 ± 0.035; the activity coefficient (358.15 K) is 0.438 ± 0.035; the activity coefficient (368.15 K) came out at 0.446 ± 0.036; the activity coefficient (378.15 K) worked out at 0.453 ± 0.036.
On to `CCC(=O)CC` [pentan-3-one] + CCCCCCCCCCCC[N+](C)(C)CCOc1ccccc1.N#C[N-]C#N, for which the activity coefficient by setting is: (328.15 K) 0.909 ± 0.058; (338.15 K) 0.947 ± 0.06; (348.15 K) 0.981 ± 0.062; (358.15 K) 1.02 ± 0.06; (368.15 K) 1.05 ± 0.07; (378.15 K) 1.08 ± 0.07.
Take `COC(C)(C)C` [2-methoxy-2-methylpropane] + CCCCCCCCCCCC[N+](C)(C)CCOc1ccccc1.O=S(=O)([N-]S(=O)(=O)C(F)(F)F)C(F)(F)F: the activity coefficient (318.15 K) stood at 1.03 ± 0.06; the activity coefficient (328.15 K) turned out to be 1.09 ± 0.07; the activity coefficient (338.15 K) was determined as 1.15 ± 0.07; the activity coefficient (348.15 K) worked out at 1.21 ± 0.08; the activity coefficient (358.15 K) was 1.27 ± 0.08; the activity coefficient (368.15 K) came out at 1.33 ± 0.09.
In the case of `CC(C)(C)O` [2-methylpropan-2-ol] + CCCCCCCCCCCC[N+](C)(C)CCOc1ccccc1.O=S(=O)([N-]S(=O)(=O)C(F)(F)F)C(F)(F)F, the activity coefficient amounted to 1.14 ± 0.07 (318.15 K); 1.1 ± 0.07 (328.15 K); 1.06 ± 0.07 (338.15 K); 1.02 ± 0.06 (348.15 K); 0.986 ± 0.062 (358.15 K); 0.952 ± 0.06 (368.15 K).
As for `CC1CCCCC1` [methylcyclohexane] + CCCCCCCCCCCC[N+](C)(C)CCOc1ccccc1.O=S(=O)([N-]S(=O)(=O)C(F)(F)F)C(F)(F)F, the activity coefficient by setting is: (318.15 K) 2.35 ± 0.16; (328.15 K) 2.39 ± 0.16; (338.15 K) 2.43 ± 0.17; (348.15 K) 2.47 ± 0.17; (358.15 K) 2.51 ± 0.17; (368.15 K) 2.55 ± 0.17.
`Cc1ccccc1` [toluene] + CCCCCCCCCCCC[N+](C)(C)CCOc1ccccc1.O=S(=O)([N-]S(=O)(=O)C(F)(F)F)C(F)(F)F: the activity coefficient (318.15 K) stood at 0.681 ± 0.046; the activity coefficient (328.15 K) is 0.725 ± 0.048; the activity coefficient (338.15 K) stood at 0.766 ± 0.05; the activity coefficient (348.15 K) was 0.81 ± 0.052; the activity coefficient (358.15 K) came out at 0.851 ± 0.055; the activity coefficient (368.15 K) was 0.893 ± 0.057.
On to `CCOCC` [diethyl ether] + CCCCCCCCCCCC[N+](C)(C)CCOc1ccccc1.N#C[N-]C#N, for which the activity coefficient amounted to 2.17 ± 0.15 (328.15 K); 2.22 ± 0.15 (338.15 K); 2.28 ± 0.16 (348.15 K); 2.34 ± 0.16 (358.15 K); 2.39 ± 0.16 (368.15 K); 2.44 ± 0.17 (378.15 K).
With `CC(C)CO` [2-methyl-1-propanol] + CCCCCCCCCCCC[N+](C)(C)CCOc1ccccc1.N#C[N-]C#N, the activity coefficient runs as follows: (328.15 K) 0.451 ± 0.036; (338.15 K) 0.46 ± 0.036; (348.15 K) 0.469 ± 0.037; (358.15 K) 0.477 ± 0.037; (368.15 K) 0.486 ± 0.037; (378.15 K) 0.494 ± 0.038.
With `CCCc1ccccc1` [propylbenzene] + CCCCCCCCCCCC[N+](C)(C)CCOc1ccccc1.N#C[N-]C#N, the activity coefficient was determined as 1.71 ± 0.11 (328.15 K); 1.77 ± 0.12 (338.15 K); 1.83 ± 0.12 (348.15 K); 1.89 ± 0.13 (358.15 K); 1.96 ± 0.13 (368.15 K); 2.01 ± 0.14 (378.15 K).
On to `CC(C)OC(C)C` [diisopropyl ether] + CCCCCCCCCCCC[N+](C)(C)CCOc1ccccc1.N#C[N-]C#N, for which the activity coefficient reads like this: (328.15 K) 4.03 ± 0.27; (338.15 K) 4.12 ± 0.28; (348.15 K) 4.22 ± 0.29; (358.15 K) 4.29 ± 0.29; (368.15 K) 4.36 ± 0.3; (378.15 K) 4.43 ± 0.3.
As for `CC(C)c1ccccc1` [isopropylbenzene] + CCCCCCCCCCCC[N+](C)(C)CCOc1ccccc1.N#C[N-]C#N, the activity coefficient runs as follows: (328.15 K) 1.82 ± 0.12; (338.15 K) 1.87 ± 0.13; (348.15 K) 1.94 ± 0.13; (358.15 K) 2 ± 0.14; (368.15 K) 2.05 ± 0.14; (378.15 K) 2.11 ± 0.14.
As for `CCCO` [propan-1-ol] + CCCCCCCCCCCC[N+](C)(C)CCOc1ccccc1.N#C[N-]C#N, the activity coefficient runs as follows: (328.15 K) 0.425 ± 0.035; (338.15 K) 0.435 ± 0.035; (348.15 K) 0.445 ± 0.036; (358.15 K) 0.454 ± 0.036; (368.15 K) 0.463 ± 0.036; (378.15 K) 0.471 ± 0.037.
For the compound `c1ccccc1` [benzene] + CCCCCCCCCCCC[N+](C)(C)CCOc1ccccc1.N#C[N-]C#N, the activity coefficient is, setting by setting: (328.15 K) 0.835 ± 0.054; (338.15 K) 0.87 ± 0.056; (348.15 K) 0.905 ± 0.057; (358.15 K) 0.938 ± 0.059; (368.15 K) 0.972 ± 0.061; (378.15 K) 1.01 ± 0.06.
As for `CCC(C)(C)C` [2,2-dimethylbutane] + CCCCCCCCCCCC[N+](C)(C)CCOc1ccccc1.N#C[N-]C#N, the activity coefficient reads like this: (328.15 K) 5.84 ± 0.4; (338.15 K) 5.95 ± 0.41; (348.15 K) 6.05 ± 0.41; (358.15 K) 6.14 ± 0.42; (368.15 K) 6.25 ± 0.43; (378.15 K) 6.35 ± 0.43.
Turning to `C#CCCCCCC` [1-octyne] + CCCCCCCCCCCC[N+](C)(C)CCOc1ccccc1.N#C[N-]C#N, the activity coefficient is 2.22 ± 0.15 (328.15 K); 2.34 ± 0.16 (338.15 K); 2.46 ± 0.17 (348.15 K); 2.57 ± 0.17 (358.15 K); 2.68 ± 0.18 (368.15 K); 2.8 ± 0.19 (378.15 K).
In the case of `C=Cc1ccccc1` [styrene] + CCCCCCCCCCCC[N+](C)(C)CCOc1ccccc1.N#C[N-]C#N, the activity coefficient (328.15 K) was determined as 0.905 ± 0.057; the activity coefficient (338.15 K) is 0.94 ± 0.06; the activity coefficient (348.15 K) is 0.981 ± 0.062; the activity coefficient (358.15 K) was 1.02 ± 0.06; the activity coefficient (368.15 K) was determined as 1.06 ± 0.07; the activity coefficient (378.15 K) turned out to be 1.1 ± 0.07.
Consider `CCC(C)O` (stereo not given) [butan-2-ol] + CCCCCCCCCCCC[N+](C)(C)CCOc1ccccc1.N#C[N-]C#N, for which the activity coefficient reads like this: (328.15 K) 0.495 ± 0.038; (338.15 K) 0.508 ± 0.038; (348.15 K) 0.522 ± 0.039; (358.15 K) 0.536 ± 0.039; (368.15 K) 0.55 ± 0.04; (378.15 K) 0.564 ± 0.041.
As to `C=CCCCCCC` [oct-1-ene] + CCCCCCCCCCCC[N+](C)(C)CCOc1ccccc1.O=S(=O)([N-]S(=O)(=O)C(F)(F)F)C(F)(F)F, the activity coefficient reads like this: (318.15 K) 2.97 ± 0.2; (328.15 K) 3.06 ± 0.21; (338.15 K) 3.14 ± 0.21; (348.15 K) 3.23 ± 0.22; (358.15 K) 3.32 ± 0.23; (368.15 K) 3.39 ± 0.23.
Take `CCC(C)O` (stereo not given) [butan-2-ol] + CCCCCCCCCCCC[N+](C)(C)CCOc1ccccc1.O=S(=O)([N-]S(=O)(=O)C(F)(F)F)C(F)(F)F: the activity coefficient (318.15 K) came to 1.23 ± 0.08; the activity coefficient (328.15 K) was determined as 1.2 ± 0.08; the activity coefficient (338.15 K) was 1.17 ± 0.07; the activity coefficient (348.15 K) was determined as 1.15 ± 0.07; the activity coefficient (358.15 K) came out at 1.12 ± 0.07; the activity coefficient (368.15 K) was found to be 1.1 ± 0.07.
As for `CC(C)O` [propan-2-ol] + CCCCCCCCCCCC[N+](C)(C)CCOc1ccccc1.O=S(=O)([N-]S(=O)(=O)C(F)(F)F)C(F)(F)F, the activity coefficient (318.15 K) stood at 1.27 ± 0.08; the activity coefficient (328.15 K) was 1.22 ± 0.08; the activity coefficient (338.15 K) was 1.18 ± 0.08; the activity coefficient (348.15 K) was determined as 1.14 ± 0.07; the activity coefficient (358.15 K) turned out to be 1.11 ± 0.07; the activity coefficient (368.15 K) turned out to be 1.08 ± 0.07.
Turning to `CCOC(C)(C)C` [2-ethoxy-2-methylpropane] + CCCCCCCCCCCC[N+](C)(C)CCOc1ccccc1.N#C[N-]C#N, the activity coefficient is, setting by setting: (328.15 K) 3.66 ± 0.25; (338.15 K) 3.74 ± 0.25; (348.15 K) 3.82 ± 0.26; (358.15 K) 3.9 ± 0.27; (368.15 K) 3.97 ± 0.27; (378.15 K) 4.03 ± 0.27.

For the origin of these results see the NIST ThermoML archive (doi:10.1016/j.fluid.2018.09.024).
